US8871753B2, “Macrocyclic compounds and their use as kinase inhibitors” (Incyte Corporation, priority 2008, dated 2014)
pIC50: −log10 of the molar value. Where a name gives a salt, the structure may show the parent alone. Read-outs that look alike come from different tables or passages of the source.

Columns and labels:
Type in all cases: biochemical
[1] = biological target: T1, human JAK1 (a.a. 837-1142) (Homo sapiens, UniProt P23458); test: In vitro JAK kinase assay (HTRF, phosphorylation of a biotinylated peptide), JAK1; settings: read-out: JAK1 IC50
T1 construct: human JAK1 (a.a. 837-1142); His tag (N); made in house; host or cells: insect cells (baculovirus)
Method: (§1) The catalytic activity of JAK1, JAK2 or JAK3 was assayed by measuring the phosphorylation of a biotinylated peptide. The phosphorylated peptide was detected by homogenous time resolved fluorescence (HTRF). […] The ATP concentration in the reactions was 90 μM for JAK1, 30 μM for JAK2 and 3 μM for JAK3. Reactions were carried out at room temperature for 1 hr and then stopped with 20 μL 45 mM EDTA, 300 nM SA-APC, 6 nM Eu-Py20 in assay buffer (Perkin Elmer, Boston, Mass.). Binding to the Europium labeled antibody took place for 40 minutes and HTRF signal was measured on a Fusion plate reader (Perkin Elmer, Boston, Mass.).
(§2) The catalytic activity of JAK1, JAK2 or JAK3 was assayed by measuring the phosphorylation of a biotinylated peptide. The phosphorylated peptide was detected by homogenous time resolved fluorescence (HTRF). […] Reactions were carried out at room temperature for 1 hr and then stopped with 20 μL 45 mM EDTA, 300 nM SA-APC, 6 nM Eu-Py20 in assay buffer (Perkin Elmer, Boston, Mass.). Binding to the Europium labeled antibody took place for 40 minutes and HTRF signal was measured on a Fusion plate reader (Perkin Elmer, Boston, Mass.).

[2] = biological target: T2, human JAK2 (a.a. 828-1132) (Homo sapiens, UniProt O60674); test: In vitro JAK kinase assay (HTRF, phosphorylation of a biotinylated peptide), JAK2; settings: Table D1
T2 construct: JAK2 (a.a. 828-1132); His tag (N); made in house; host or cells: insect cells (baculovirus)
Method: as §1, §2

[3] = biological target: T3, human JAK3 (a.a. 781-1124) (Homo sapiens, UniProt P52333); test: In vitro JAK kinase assay (HTRF, phosphorylation of a biotinylated peptide), JAK3
T3 construct: JAK3 (a.a. 781-1124); His tag (N); made in house; host or cells: insect cells (baculovirus)
Method: as §1, §2

[4] = biological target: TYK2 (Homo sapiens, UniProt P29597); test: TYK2 kinase inhibition (Table A1)
Sequence of TYK2 (P29597 whole entry): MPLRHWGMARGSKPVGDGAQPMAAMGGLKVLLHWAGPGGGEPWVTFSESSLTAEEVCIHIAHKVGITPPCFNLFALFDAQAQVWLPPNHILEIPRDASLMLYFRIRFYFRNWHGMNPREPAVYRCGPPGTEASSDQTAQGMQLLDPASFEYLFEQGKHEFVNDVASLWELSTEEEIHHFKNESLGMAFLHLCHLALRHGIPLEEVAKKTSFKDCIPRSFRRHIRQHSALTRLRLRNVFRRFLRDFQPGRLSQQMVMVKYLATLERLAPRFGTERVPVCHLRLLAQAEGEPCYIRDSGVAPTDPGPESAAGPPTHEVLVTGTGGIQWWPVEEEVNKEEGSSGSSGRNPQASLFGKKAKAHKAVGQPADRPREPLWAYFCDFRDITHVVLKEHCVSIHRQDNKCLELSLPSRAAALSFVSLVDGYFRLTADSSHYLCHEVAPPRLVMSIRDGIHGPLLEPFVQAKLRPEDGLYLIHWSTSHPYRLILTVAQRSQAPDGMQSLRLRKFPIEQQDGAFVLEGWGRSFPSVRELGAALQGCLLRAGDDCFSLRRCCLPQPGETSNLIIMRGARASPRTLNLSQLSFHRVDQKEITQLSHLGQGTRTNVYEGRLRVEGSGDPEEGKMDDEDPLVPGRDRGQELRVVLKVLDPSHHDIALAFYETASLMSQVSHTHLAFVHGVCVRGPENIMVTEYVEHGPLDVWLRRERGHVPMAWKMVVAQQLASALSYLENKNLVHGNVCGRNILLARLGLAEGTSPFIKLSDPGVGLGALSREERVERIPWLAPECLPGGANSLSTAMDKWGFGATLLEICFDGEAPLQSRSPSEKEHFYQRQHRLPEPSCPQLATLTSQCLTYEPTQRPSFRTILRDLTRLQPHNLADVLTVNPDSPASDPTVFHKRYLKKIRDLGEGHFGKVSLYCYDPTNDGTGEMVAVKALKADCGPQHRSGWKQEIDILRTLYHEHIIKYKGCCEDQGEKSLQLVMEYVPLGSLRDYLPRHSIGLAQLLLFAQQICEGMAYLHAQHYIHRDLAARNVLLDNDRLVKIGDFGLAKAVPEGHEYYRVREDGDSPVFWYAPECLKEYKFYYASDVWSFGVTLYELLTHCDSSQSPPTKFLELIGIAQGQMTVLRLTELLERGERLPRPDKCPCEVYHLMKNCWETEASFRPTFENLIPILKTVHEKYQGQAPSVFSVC

T3 sequence (P52333 781-1124): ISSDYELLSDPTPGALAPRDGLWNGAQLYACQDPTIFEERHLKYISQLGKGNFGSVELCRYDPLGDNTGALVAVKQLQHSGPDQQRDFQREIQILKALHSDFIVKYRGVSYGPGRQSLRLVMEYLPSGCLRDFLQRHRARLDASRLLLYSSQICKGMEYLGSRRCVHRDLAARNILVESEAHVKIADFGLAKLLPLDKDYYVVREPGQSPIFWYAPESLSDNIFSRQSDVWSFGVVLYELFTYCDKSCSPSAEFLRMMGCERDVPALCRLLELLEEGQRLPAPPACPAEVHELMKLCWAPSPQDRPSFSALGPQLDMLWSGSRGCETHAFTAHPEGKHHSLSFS
T1 sequence (P23458 849-1154): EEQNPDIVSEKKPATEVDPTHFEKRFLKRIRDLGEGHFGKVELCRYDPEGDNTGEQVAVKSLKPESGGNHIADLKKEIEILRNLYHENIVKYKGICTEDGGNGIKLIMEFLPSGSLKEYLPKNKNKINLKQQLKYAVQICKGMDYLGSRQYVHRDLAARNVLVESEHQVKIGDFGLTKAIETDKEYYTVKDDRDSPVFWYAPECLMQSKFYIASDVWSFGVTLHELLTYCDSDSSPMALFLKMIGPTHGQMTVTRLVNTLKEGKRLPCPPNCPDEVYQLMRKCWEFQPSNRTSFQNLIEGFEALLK
T2 sequence (O60674 828-1132): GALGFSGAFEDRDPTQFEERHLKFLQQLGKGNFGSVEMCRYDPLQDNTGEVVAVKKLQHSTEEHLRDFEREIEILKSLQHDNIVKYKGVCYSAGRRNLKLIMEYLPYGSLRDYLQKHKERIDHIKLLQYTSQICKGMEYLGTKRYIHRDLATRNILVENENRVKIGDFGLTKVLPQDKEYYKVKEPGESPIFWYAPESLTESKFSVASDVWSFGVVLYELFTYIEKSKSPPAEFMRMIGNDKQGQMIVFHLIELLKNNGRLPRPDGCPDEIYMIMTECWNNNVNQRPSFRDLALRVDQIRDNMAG

SMILES	pIC50 ([1]; Table D1)	pIC50 [2]	pIC50 ([3]; Table D1)	pIC50 ([4]; Table D1)	pIC50 ([1]; Table B1)	pIC50 ([3]; Table B1)	pIC50 ([4]; Table B1)
N#Cc1ccccc1S(=O)(=O)N1CCC(CCNc2ccc3cc2CCc2cncc(c2)Nc2ncc(Cl)c(n2)N3)CC1 [Example D222, 2-{[4-(2-{[6-Chloro-2,4,8,18,22-pentaazatetracyclo[14.3.1.1(3,7).1(9,13)]docosa-1(20),3(22),4,6,9(21),10,12,16,18-nonaen-12-yl]amino}ethyl)piperidin-1-yl]sulfonyl}benzonitrile tris(trifluoroacetate)]	7.68	6.95	< 6.40	7.05	–	–	–
O=C(CC1CN(c2nc3cccnc3o2)C1)Nc1ccc2cc1CCc1cncc(c1)Nc1ncc(Cl)c(n1)N2 [Example D141, N-[6-Chloro-2,4,8,18,22-pentaazatetracyclo[14.3.1.1(3,7).1(9,13)]docosa-1(20),3(22),4,6,9(21),10,12,16,18-nonaen-12-yl]-2-(1-[1,3]oxazolo[5,4-b]pyridin-2-ylazetidin-3-yl)acetamide tris(trifluoroacetate)]	8.05	6.97	< 6.00	6.58	–	–	–
O=c1[nH]c2cc3cc(c2o1)CCc1cccc(c1)Nc1ncc(Cl)c(n1)N3 [Example D184, 4-Chloro-18-oxa-2,6,8,20,25-pentaazapentacyclo[14.6.1.1(3,7).1(9,13).0(17,21)]pentacosa-1(23),3(25),4,6,9(24),10,12,16,21-nonaen-19-one]	9.05	8.55	7.68	8.74	–	–	–
O=C(COc1ccc2cc1CCc1cncc(c1)Nc1ncc(Cl)c(n1)N2)N1CCN(c2cc(Cl)cc(Cl)n2)CC1 [Example D247, 6-Chloro-12-{2-[4-(4,6-dichloropyridin-2-yl)piperazin-1-yl]-2-oxoethoxy}-2,4,8,18,22-pentaazatetracyclo[14.3.1.1(3,7).1(9,13)]docosa-1(20),3(22),4,6,9(21),10,12,16,18-nonaene tris(trifluoroacetate)]	7.09	< 6.40	< 6.40	< 6.40	–	–	–
O=C(C[C@H]1CCCN(C(=O)c2ccccc2)C1)Nc1ccc2cc1CCc1cccc(c1)Nc1ncc(Cl)c(n1)N2 [Example D203, 2-[(3R)-1-Benzoylpiperidin-3-yl]-N-[6-chloro-2,4,8,22-tetraazatetracyclo[14.3.1.1(3,7).1(9,13)]docosa-1(20),3(22),4,6,9(21),10,12,16,18-nonaen-12-yl]acetamide trifluoroacetate]	7.49	7.89	7.07	7.15	–	–	–
Clc1cnc2nc1Nc1ccc(N3CCNCC3)c(c1)CCc1cccc(c1)N2 [Example D83, 6-Chloro-12-piperazin-1-yl-2,4,8,22-tetraazatetracyclo[14.3.1.1(3,7).1(9,13)]docosa-1(20),3(22),4,6,9(21),10,12,16,18-nonaene bis(trifluoroacetate)]	6.90	7.59	7.24	6.89	–	–	–
O=C(COc1ccc2cc1CCc1cncc(c1)Nc1ncc(Cl)c(n1)N2)N1CCN(c2cccc(C(F)(F)F)n2)CC1 [Example D248, 6-Chloro-12-(2-oxo-2-{4-[6-(trifluoromethyl)pyridin-2-yl]piperazin-1-yl}ethoxy)-2,4,8,18,22-pentaazatetracyclo[14.3.1.1(3,7).1(9,13)]docosa-1(20),3(22),4,6,9(21),10,12,16,18-nonaene tris(trifluoroacetate)]	7.23	< 6.40	< 6.40	< 6.40	–	–	–
O=C(Nc1ccc2cc1CCc1cccc(c1)Nc1ncc(Cl)c(n1)N2)c1nc2ccccc2s1 [Example B74, N-[6-Chloro-2,4,8,22-tetraazatetracyclo[14.3.1.1(3,7).1(9,13)]docosa-1(20), 3(22),4,6,9(21),10,12,16,18-nonaen-12-yl]-1,3-benzothiazole-2-carboxamide trifluoroacetate]	–	–	–	–	< 6.00	< 6.00	< 6.00
N#Cc1cccc(NC(=O)N2CC[C@@H](CC(=O)Nc3ccc4cc3CCc3cncc(c3)Nc3ncc(Cl)c(n3)N4)C2)c1 [Example D115, (3S)-3-(2-{[6-Chloro-2,4,8,18,22-pentaazatetracyclo[14.3.1.1(3,7).1(9,13)]docosa-1(20),3(22),4,6,9(21),10,12,16,18-nonaen-12-yl]amino}-2-oxoethyl)-N-(3-cyanophenyl)pyrrolidine-1-carboxamide bis(trifluoroacetate)]	7.72	6.79	–	–	–	–	–
Cn1ccc(C(=O)N2CC[C@@H](CC(=O)Nc3ccc4cc3CCc3cncc(c3)Nc3ncc(Cl)c(n3)N4)C2)n1 [Example D121, N-[6-Chloro-2,4,8,18,22-pentaazatetracyclo[14.3.1.1(3,7).1(9,13)]docosa-1(20),3(22),4,6,9(21),10,12,16,18-nonaen-12-yl]-2-{(3S)-1-[(1-methyl-1H-pyrazol-3-yl)carbonyl]pyrrolidin-3-yl}acetamide bis(trifluoroacetate)]	7.12	6.26	–	–	–	–	–
c1cc2cc(c1)Nc1ccnc(n1)Nc1cncc(c1)CC2 [Example D217, 2,4,8,18,22-Pentaazatetracyclo[14.3.1.1(3,7).1(9,13)]docosa-1(20),3(22),4,6,9(21),10,12,16,18-nonaene bis(trifluoroacetate)]	7.28	6.99	< 6.40	–	–	–	–
Cc1oncc1C(=O)N1CC[C@H](CC(=O)Nc2ccc3cc2CCc2cncc(c2)Nc2ncc(Cl)c(n2)N3)C1 [Example D108, N-[6-Chloro-2,4,8,18,22-pentaazatetracyclo[14.3.1.1(3,7).1(9,13)]docosa-1(20),3(22),4,6,9(21),10,12,16,18-nonaen-12-yl]-2-{(3R)-1-[(5-methylisoxazol-4-yl)carbonyl]pyrrolidin-3-yl}acetamide bis(trifluoroacetate)]	7.21	6.61	–	–	–	–	–
N#Cc1ccccc1NC(=O)N1CC[C@H](CC(=O)Nc2ccc3cc2CCc2cncc(c2)Nc2ncc(Cl)c(n2)N3)C1 [Example D100, (3R)-3-(2-{[6-Chloro-2,4,8,18,22-pentaazatetracyclo[14.3.1.1(3,7).1(9,13)]docosa-1(20),3(22),4,6,9(21),10,12,16,18-nonaen-12-yl]amino}-2-oxoethyl)-N-(2-cyanophenyl)pyrrolidine-1-carboxamide bis(trifluoroacetate)]	7.70	6.72	–	–	–	–	–
O=C(C[C@H]1CCN(C(=O)Nc2cccnc2)C1)Nc1ccc2cc1CCc1cncc(c1)Nc1ncc(Cl)c(n1)N2 [Example D101, (3R)-3-(2-{[6-Chloro-2,4,8,18,22-pentaazatetracyclo[14.3.1.1(3,7).1(9,13)]docosa-1(20),3(22),4,6,9(21),10,12,16,18-nonaen-12-yl]amino}-2-oxoethyl)-N-pyridin-3-ylpyrrolidine-1-carboxamide tris(trifluoroacetate)]	7.85	6.76	–	–	–	–	–
O=C(C[C@H]1CCN(C(=O)Nc2ccc(F)cc2)C1)Nc1ccc2cc1CCc1cncc(c1)Nc1ncc(Cl)c(n1)N2 [Example D102, (3R)-3-(2-{[6-Chloro-2,4,8,18,22-pentaazatetracyclo[14.3.1.1(3,7).1(9,13)]docosa-1(20),3(22),4,6,9(21),10,12,16,18-nonaen-12-yl]amino}-2-oxoethyl)-N-(4-fluorophenyl)pyrrolidine-1-carboxamide bis(trifluoroacetate)]	8.60	7.11	–	–	–	–	–
O=C(C[C@H]1CCCN(c2nc3ccccc3s2)C1)Nc1ccc2cc1CCc1cncc(c1)Nc1ncc(Cl)c(n1)N2 [Example D212, 2-[(3R)-1-(1,3-Benzothiazol-2-yl)piperidin-3-yl]-N-[6-chloro-2,4,8,18,22-pentaazatetracyclo[14.3.1.1(3,7).1(9,13)]docosa-1(20),3(22),4,6,9(21),10,12,16,18-nonaen-12-yl]acetamide tris(trifluoroacetate)]	7.19	< 6.00	–	–	–	–	–
O=C(C[C@@H]1CCN(C(=O)c2cn[nH]c2)C1)Nc1ccc2cc1CCc1cncc(c1)Nc1ncc(Cl)c(n1)N2 [Example D133, N-[6-Chloro-2,4,8,18,22-pentaazatetracyclo[14.3.1.1(3,7).1(9,13)]docosa-1(20),3(22),4,6,9(21),10,12,16,18-nonaen-12-yl]-2-[(3S)-1-(1H-pyrazol-4-ylcarbonyl)pyrrolidin-3-yl]acetamide bis(trifluoroacetate)]	7.14	6.05	–	–	–	–	–
O=C(C[C@@H]1CCN(C(=O)Nc2cccnc2)C1)Nc1ccc2cc1CCc1cncc(c1)Nc1ncc(Cl)c(n1)N2 [Example D117, (3S)-3-(2-{[6-Chloro-2,4,8,18,22-pentaazatetracyclo[14.3.1.1(3,7).1(9,13)]docosa-1(20),3(22),4,6,9(21),10,12,16,18-nonaen-12-yl]amino}-2-oxoethyl)-N-pyridin-3-ylpyrrolidine-1-carboxamide tris(trifluoroacetate)]	7.41	6.41	–	–	–	–	–
